Experimental data: US12435087B2, “Modulators of DCN-1 and methods of use thereof” (Cellarity, Inc., priority 2023, dated 2025)
Like-named read-outs stand apart in the source and are kept apart here.

Biological target: DCN1 (DCUND1) protein PONY domain (Homo sapiens (Human), UniProt Q96GG9)
Assay: TR-FRET assay (binding to DCN-1, displacement of FAM-labeled probe)
Excerpt: (§1) The TR-FRET assay was designed following the Scott et al. protocol (Scott et al., Nat Chem Biol. 2017 August; 13(8): 850-857. doi:10.1038/nchembio.2386). The recombinant form of the DCN1 (DCUND1) protein PONY domain was produced using an E. coli expression system at Viva Biotech (China). The DCN1 protein was biotinylated (EZ sulfo-NHS-LC-biotin; Thermofisher) for labeling with streptavidin terbium (Tb) cryptate in the reaction. The probe was changed to a non-covalent DCN1 inhibitor labeled with carboxyfluorescein (FAM; Zhou et al., Nat Commun. 2017; 8: 1150. doi: 10.1038/s41467-017-01243-7). Buffer conditions were modified to enhance protein stability by exchanging Tween20 for TritonX and increasing NaCl to 200 mM. The compounds were screened against 5 nM DCN1 and 20 nM FAM-probe or 0.31 nM DCN1 and 900 nM total probe (100 nM FAM-labeled plus 800 nM unlabeled). The TR-FRET ratio between Tb-DCN1 and the FAM-labeled probe was measured in a 384-well opti-plate (Perkin Elmer) using a plate reader (BMG) at 1, 5, and 24 hrs after treatment with compound (final DMSO concentration of 0.1%). The ratio was normalized to the high (DCN1 and FAM-probe) and low (DCN1 and no probe) controls for a readout of % activity (=100*(x−low)/(high−low).
A TR-FRET assay was performed to evaluate the ability of the compounds to bind the DCN-1 protein.
as §1, with “850-857. Doi: 10.1038/nchembio.2386).” for “850-857. doi:10.1038/nchembio.2386).”, “the DCNI” for “the DCN1”, “1150. Doi:” for “1150. doi:”, “0.1%).” for “0.1%). The ratio was normalized to the high (DCN1 and FAM-probe) and low (DCN1 and no probe) controls for a readout of % activity (=100*(x−low)/(high−low).”

[1] = 24 hr after treatment with compound, read-out: TR FRET IC50 24 hr
[2] = read-out: TR FRET IC50 1 hr, 1 hr after treatment with compound
[3] = TR FRET IC50 1 hr (nM), 1 hr after treatment with compound

DCN1 (DCUND1) protein PONY domain, sequence (Q96GG9 60-248): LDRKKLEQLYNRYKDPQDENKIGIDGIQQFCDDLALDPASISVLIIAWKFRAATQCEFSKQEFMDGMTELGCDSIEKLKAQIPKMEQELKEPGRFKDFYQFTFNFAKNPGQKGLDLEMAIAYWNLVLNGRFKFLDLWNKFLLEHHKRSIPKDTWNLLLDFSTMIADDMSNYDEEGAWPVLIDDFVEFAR

Row | SMILES | IC50 [1] | IC50 [2] | IC50 [3]
1 | C=C(CN1CC2CCC(C1)O2)C(=O)NCc1cccc([C@@H]2c3cnn(-c4ccccc4)c3N(CC)C(=O)[C@H]2NC(=O)c2ccn(C(F)(F)F)n2)c1 [Compound I-347] | ≤ 200 nM | ≤ 200 nM | –
2 | C=C(CN1CCN(C2COC2)CC1)C(=O)N[C@H](C)c1cccc([C@@H]2c3cnn(-c4ccccc4)c3N(CC)C(=O)[C@H]2NC(=O)c2nccc(C(F)(F)F)n2)c1 (mixture of isomers) [Compound I-366] | 1000 to 3000 nM | – | 1000 to 3000 nM
3 | C=C(CN1CCOCC1)C(=O)N[C@@H](C)c1cccc([C@@H]2c3cnn(-c4ccccc4)c3N(CC)C(=O)[C@H]2NC(=O)c2nccc(C(F)(F)F)n2)c1 [Compound I-299] | 1000 to 3000 nM | – | 1000 to 3000 nM
4 | C=C(CN(C)C1COC1)C(=O)N(C)Cc1cccc([C@@H]2c3cnn(-c4ccccc4)c3N(CC)C(=O)[C@H]2NC(=O)c2ccn(C3CC3)n2)c1 [Compound I-239] | – | – | 1000 to 3000 nM
5 | CCN1C(=O)[C@@H](NC(=O)c2cccc(C(F)(F)F)c2)[C@H](c2ccccc2CNC(=O)C2=CCC2)c2cnn(-c3ccccc3)c21 (racemic) [Compound I-101] | 1000 to 3000 nM | – | 1000 to 3000 nM
6 | CCN1C(=O)[C@@H](NC(=O)c2cccc(C(F)(F)F)c2)[C@H](c2cccc(CNC/C=C/C(=O)N3CCCC3)c2)c2cnn(-c3ccccc3)c21 [Compound I-307] | 1000 to 3000 nM | – | 1000 to 3000 nM
7 | C=C(C(=O)NCc1cccc([C@@H]2c3cnn(-c4ccccc4)c3N(CC)C(=O)[C@H]2NC(=O)c2ccn(C3CC3)n2)c1)C(C)N(C)C1COC1 (stereo partly drawn) [Compound I-327] | ≤ 200 nM | ≤ 200 nM | –
8 | C/C=C(\CN1CCOCC1)C(=O)NCc1cccc([C@@H]2c3cnn(-c4ccccc4)c3N(CC)C(=O)[C@H]2NC(=O)c2ccn(C(F)(F)F)n2)c1 [Compound I-284] | ≤ 200 nM | – | 1000 to 3000 nM
9 | C=C(CN1CCOCC1)C(=O)NCc1cccc([C@@H]2c3cnn(-c4ccccc4)c3N(CC)C(=O)[C@H]2NC(=O)c2ccn(CC#N)n2)c1 [Compound I-340, 1-(cyanomethyl)-N-((4R,5S)-7-ethyl-4-(3-((2-(morpholinomethyl)acrylamido)methyl)phenyl)-6-oxo-1-phenyl-4,5,6,7-tetrahydro-1H-pyrazolo[3,4-b]pyridin-5-yl)-1H-pyrazole-3-carboxamide] | 200 to 1000 nM | – | 1000 to 3000 nM
10 | C/C=C(\CN1CCN(C2COC2)CC1)C(=O)N(C)c1cccc([C@@H]2c3cnn(-c4ccccc4)c3N(CC)C(=O)[C@H]2NC(=O)c2csc(C(F)(F)F)n2)c1 [Compound I-301, N-((4R,5S)-7-ethyl-4-(3-((E)-N-methyl-2-((4-(oxetan-3-yl)piperazin-1-yl)methyl)but-2-enamido)phenyl)-6-oxo-1-phenyl-4,5,6,7-tetrahydro-1H-pyrazolo[3,4-b]pyridin-5-yl)-2-(trifluoromethyl)thiazole-4-carboxamide] | 200 to 1000 nM | – | 1000 to 3000 nM
11 | CCN1C(=O)[C@H](NC(=O)c2cccc(C(F)(F)F)c2)[C@@H](c2cccc(NC(C)=O)c2)c2c(C)nn(-c3ccccc3)c21 (racemic) [Compound I-124] | 1000 to 3000 nM | – | 1000 to 3000 nM
12 | CCN1C(=O)[C@@H](NC(=O)c2cccc(C(F)(F)F)c2)[C@H](c2cccc(CNC(=O)C3=C(C(=O)OC)CC3)c2)c2cnn(-c3ccccc3)c21 [Compound I-155] | ≤ 200 nM | – | 1000 to 3000 nM
13 | C=C(CN1CCOCC1)C(=O)NCc1cccc([C@@H]2c3cnn(-c4ccccc4)c3N(CC)C(=O)[C@H]2NC(=O)c2ccn(C(F)F)n2)c1 [Compound I-308] | ≤ 200 nM | – | 200 to 1000 nM
14 | C=C(CN1CCC1)C(=O)NCc1cccc([C@H]2c3c(C)nn(-c4ccccc4)c3N(CC)C(=O)[C@@H]2NC(=O)c2cccc(C(F)(F)F)c2)c1 [Compound I-374] | 200 to 1000 nM | – | 200 to 1000 nM
15 | C=C(C(=O)N(C)Cc1cccc([C@@H]2c3cnn(-c4ccccc4)c3N(CC)C(=O)[C@H]2NC(=O)c2ccn(C(F)(F)F)n2)c1)C(C)N(C)C1COC1 (stereo partly drawn) [Compound I-313] | ≤ 200 nM | – | 1000 to 3000 nM
16 | CCN1C(=O)[C@@H](NC(=O)c2nccc(C(F)(F)F)n2)[C@H](c2cccc(C(=O)N3CC(F)(F)C[C@H]3C#N)c2)c2cnn(-c3ccccc3)c21 (mixture of isomers) [Compound I-379, N-(rac-(4R,5S)-4-(3-((S)-2-cyano-4,4-difluoropyrrolidine-1-carbonyl)phenyl)-7-ethyl-6-oxo-1-phenyl-4,5,6,7-tetrahydro-1H-pyrazolo[3,4-b]pyridin-5-yl)-4-(trifluoromethyl)pyrimidine-2-carboxamide] | 1000 to 3000 nM | – | 1000 to 3000 nM
17 | C/C=C(\CN1CCOCC1)C(=O)N(C)Cc1cccc([C@@H]2c3cnn(-c4ccccc4)c3N(CC)C(=O)[C@H]2NC(=O)c2nccc(C(F)(F)F)n2)c1 [Compound I-326] | 1000 to 3000 nM | – | 1000 to 3000 nM
18 | CCN1C(=O)[C@@H](NC(=O)c2cccc(C(F)(F)F)c2)[C@H](c2cccc(CNC#N)c2)c2c(C)nn(-c3ccccc3)c21 (racemic) [Compound I-138] | 200 to 1000 nM | – | 200 to 1000 nM
19 | C=C(C(=O)NCc1cccc([C@@H]2c3cnn(-c4ccccc4)c3N(CC)C(=O)[C@H]2NC(=O)c2ccn(C(F)(F)F)n2)c1)C(C)N1CCOCC1 (stereo partly drawn) [Compound I-296] | ≤ 200 nM | ≤ 200 nM | –
20 | C/C=C(\CN1CCC12COC2)C(=O)Nc1cccc([C@@H]2c3cnn(-c4ccccc4)c3N(CC)C(=O)[C@H]2NC(=O)c2nccc(C(F)(F)F)n2)c1 [Compound I-251] | ≤ 200 nM | – | 1000 to 3000 nM
21 | CCN1C(=O)[C@H](NC(=O)c2cccc(C(F)(F)F)c2)[C@@H](c2cccc(NC(=O)/C=C/CN(C)C)c2)c2c(CO)nn(-c3ccccc3)c21 (racemic) [Compound I-213, ˜{N}—[˜{rac}-(4˜{S},5˜{R})-7-ethyl-3-(hydroxymethyl)-6-oxo-1-phenyl-4-[3-[[˜{rac}-(˜{E})-4-(dimethylamino)but-2-enoyl]amino]phenyl]-4,5-dihydropyrazolo[3,4-b]pyridin-5-yl]-3-(trifluoromethyl)benzamide] | 200 to 1000 nM | – | 1000 to 3000 nM
22 | CCN1C(=O)[C@@H](NC(=O)c2cccc(C(F)(F)F)c2)[C@H](c2cccc(CNC(=O)/C=C/CN(C)C)c2)c2cnn(-c3ccccc3)c21 (racemic) [Compound I-53] | 1000 to 3000 nM | – | 1000 to 3000 nM
23 | CCN1C(=O)[C@@H](NC(=O)c2cccc(C(F)(F)F)c2)[C@H](c2cccc(CNC(=O)C3=CCCN(C)C3)c2)c2cnn(-c3ccccc3)c21 [Compound I-33] | 1000 to 3000 nM | – | 1000 to 3000 nM
24 | CCN1C(=O)[C@@H](NC(=O)c2cccc(C(F)(F)F)c2)[C@H](c2cccc(NC(=O)/C=C/CN(C)C)c2F)c2cnn(-c3ccccc3)c21 (racemic) [Compound I-56] | ≤ 200 nM | – | 200 to 1000 nM
25 | C=C(CN1CCOCC1)C(=O)NCc1cccc([C@@H]2c3cnn(-c4ccccc4)c3N(CC)C(=O)[C@H]2NC(=O)c2ccn(CC(F)F)n2)c1 [Compound I-364] | ≤ 200 nM | – | 200 to 1000 nM
26 | CCN1C(=O)[C@@H](NC(=O)c2nccc(C(F)(F)F)n2)[C@H](c2cccc(CN3CC=CS3(=O)=O)c2)c2cnn(-c3ccccc3)c21 [Compound I-263, N-((4R,5S)-4-(3-((1,1-dioxidoisothiazol-2 (3H)-yl)methyl)phenyl)-7-ethyl-6-oxo-1-phenyl-4,5,6,7-tetrahydro-1H-pyrazolo[3,4-b]pyridin-5-yl)-4-(trifluoromethyl)pyrimidine-2-carboxamide] | 1000 to 3000 nM | – | 1000 to 3000 nM
